Experimental data: patent US6492374B2, “Benzofuran derivatives, their preparation and use” (H. Lundbeck A/S, priority 1998, dated 2002)

Legend:
[1] = biological target: T1, cloned human 5-HT1A receptors (Homo sapiens, UniProt P08908); assay: Inhibition of 3H-5-CT binding to human 5-HT1A receptors; settings: cloned human 5-HT1A receptors expressed in HeLa cells (HA7)
T1 construct: expressed in transfected cells; host or cells: HeLa cells (HA7), stably transfected; cell homogenate
T1 sequence (P08908 1-422): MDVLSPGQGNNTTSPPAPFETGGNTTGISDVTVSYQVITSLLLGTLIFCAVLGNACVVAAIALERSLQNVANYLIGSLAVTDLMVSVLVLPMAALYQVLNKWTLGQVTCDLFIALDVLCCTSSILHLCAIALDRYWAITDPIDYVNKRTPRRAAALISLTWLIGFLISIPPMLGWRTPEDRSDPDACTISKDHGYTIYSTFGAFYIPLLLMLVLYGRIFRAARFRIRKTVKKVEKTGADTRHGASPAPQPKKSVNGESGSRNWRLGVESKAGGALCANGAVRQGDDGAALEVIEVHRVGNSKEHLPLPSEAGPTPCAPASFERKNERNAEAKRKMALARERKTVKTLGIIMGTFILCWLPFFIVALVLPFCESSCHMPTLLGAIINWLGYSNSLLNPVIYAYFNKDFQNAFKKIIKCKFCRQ
Method: Inhibition of ^3H-5CT Binding to Human 5-HT1A Receptors
Human 5-HT1A receptors (40 μg of cell homogenate) were incubated for 15 minutes at 37° C. in 50 mM Tris buffer at pH 7.7 in the presence of ^3H-5-CT. Non-specific binding was determined by including 10 μM of metergoline. The reaction was terminated by rapid filtration through Unifilter GF/B filters on a Tomtec Cell Harvester. Filters were counted in a Packard Top Counter.

[2] = test system: serotonin reuptake (3H-5-HT uptake into whole rat brain synaptosomes); assay: Inhibition of 3H-5-HT uptake into rat brain synaptosomes; format: biochemical
Method: Inhibition of ^3H-5HT Uptake Into Rat Brain Synaptosomes
Using this method, the ability of drugs to inhibit the accumulation of ^3H-5-HT into whole rat brain synaptosomes is determined in vitro.

| Structure (SMILES) | melting point | IC50 [1] | IC50 [2] | Inhibition of serotonin reuptake % inhibition at 100 nM [2] |
| --- | --- | --- | --- | --- |
| CN(CCCC1(c2ccc(F)cc2)OCc2cc(C#N)ccc21)Cc1cccc2c1OCCO2.O=C(O)C(=O)O (centres unmarked) | 160 to 162 °C |  |  |  |
| CN(CCCc1cccc2c1OCCO2)CCCC1(c2ccc(F)cc2)OCc2cc(F)ccc21.O=C(O)C(=O)O (centres unmarked) | 131 to 133 °C |  |  |  |
| CN(CCCc1cccc2c1OCCO2)CCCC1(c2ccc(F)cc2)OCc2cc(C#N)ccc21.O=C(O)C(=O)O (single isomer, unassigned; (+)) [Compound 1b, (+)-1-[3-[[3-(1,4-Benzodioxan-5-yl)propyl]methylamino]propyl]-1-(4-fluorophenyl)-1,3-dihydroisobenzofuran-5-carbonitrile oxalate] | 114 to 116 °C | 12 nM |  |  |
| CN(CCCC1(c2ccc(F)cc2)OCc2cc(C#N)ccc21)CCc1cccc2c1OCCO2.O=C(O)C(=O)O (centres unmarked) [Compound 1c, 1-[3-[[2-(1,4-Benzodioxan-5-yl)ethyl]methylamino]propyl]-1-(4-fluorophenyl)-1,3-dihydroisobenzofuran-5carbonitrile oxalate] | 118 to 120 °C | 53 nM |  |  |
| CCN(CCCC1(c2ccc(F)cc2)OCc2cc(C#N)ccc21)CCc1c[nH]c2c(F)cc(F)cc12 (centres unmarked) [Compound 12u, 1-[3-[[2-(5,7-Difluoro-1H-indol-3-yl)ethyl]ethylamino]propyl]-1-(4-fluorophenyl)-1,3-dihydroisobenzofuran-5-carbonitrile] |  | 9 nM | 22 nM |  |
| CCN(CCCCc1c[nH]c2ccc(F)cc12)CCCC1(c2ccc(F)cc2)OCc2cc(C#N)ccc21 (centres unmarked) [Compound 12v, 1-[3-[[4-(5-Fluoro-1H-indol-3-yl)butyl]ethylamino]propyl]-1-(4-fluorophenyl)-1,3-dihydroisobenzofuran-5-carbonitrile] |  | 39 nM | 12 nM |  |
| CCN(CCCc1c[nH]c2ccc(Cl)cc12)CCCC1(c2ccc(F)cc2)OCc2cc(C#N)ccc21 (centres unmarked) [Compound 12x, 1-[3-[[3-(5-Chloro-1H-indol-3-yl)propyl]ethylamino]propyl]-1-(4-fluorophenyl)-1,3-dihydroisobenzofuran-5-carbonitrile] |  | 14 nM |  | 50% inh. at 100 nM |
| C=CCN(CCCC1(c2ccc(F)cc2)OCc2cc(C#N)ccc21)CCc1c[nH]c2ccc(F)cc12 (centres unmarked) [Compound 13b, 1-[3-[[2-(5-Fluoro-1H-indol-3-yl)ethyl](prop-2-en-1-yl)amino]propyl]-1-(4-fluorophenyl)-1,3-dihydroisobenzofuran-5-carbonitrile] |  | 7.4 nM | 44 nM |  |
| C=CCN(CCCC1(c2ccc(F)cc2)OCc2cc(C#N)ccc21)CCc1c[nH]c2c(F)cccc12 (centres unmarked) [Compound 13c, 1-[3-[[2-(7-Fluoro-1H-indol-3-yl)ethyl](prop-2-en-1-yl)amino]propyl]-1-(4-fluorophenyl)-1,3-dihydroisobenzofuran-5-carbonitrile] |  | 9.6 nM | 12 nM |  |
| C=CCN(CCCc1c[nH]c2ccc(F)cc12)CCCC1(c2ccc(F)cc2)OCc2cc(C#N)ccc21 (centres unmarked) [Compound 13d, 1-[3-[[3-(5-Fluoro-1H-indol-3-yl)propyl](prop-2-en-1-yl)amino]propyl]-1-(4-fluorophenyl)-1,3-dihydroisobenzofuran-5-carbonitrile] |  | 15 nM | 21 nM |  |
| C=CCN(CCCc1c[nH]c2c(F)cccc12)CCCC1(c2ccc(F)cc2)OCc2cc(C#N)ccc21 (centres unmarked) [Compound 13e, 1-[3-[[3-(7-Fluoro-1H-indol-3-yl)propyl](prop-2-en-1-yl)amino]propyl]-1-(4-fluorophenyl)-1,3-dihydroisobenzofuran-5-carbonitrile] |  | 22 nM | 27 nM |  |
| C=CCN(CCCC1(c2ccc(F)cc2)OCc2cc(C#N)ccc21)CCc1c[nH]c2ccc(Cl)cc12 (centres unmarked) [Compound 13f] |  | 31 nM |  | 16% inh. at 100 nM |
| CCCN(CCCC1(c2ccc(F)cc2)OCc2cc(C#N)ccc21)CCc1c[nH]c2c(F)cc(F)cc12 (centres unmarked) [Compound 13g, 1-[3-[[2-(5,7-Difluoro-1H-indol-3-yl)ethyl]propylamino]propyl]-1-(4-fluorophenyl)-1,3-dihydroisobenzofuran-5-carbonitrile] |  | 18 nM |  | 49% inh. at 100 nM |
| C=CCN(CCCC1(c2ccc(F)cc2)OCc2cc(C#N)ccc21)CCc1c[nH]c2c(C)ccc(Cl)c12 (centres unmarked) [Compound 13j, 1-[3-[[2-(4-Chloro-7-methyl-1H-indol-3-yl)ethyl](prop-2-en-1-yl)amino]propyl]-1-(4-fluorophenyl)-1,3-dihydroisobenzofuran-5-carbonitrile] |  | 16 nM |  | 61% inh. at 100 nM |
